Laboratory results reported in article doi:10.1101/2021.06.15.448612v1 (biorxiv, 2021).
pKd: −log10 of the molar value.

Target: MsbA (Escherichia coli, UniProt P60752)
Assay: isothermal titration calorimetry
Format: binding

Sequence of MsbA (P60752 2-582): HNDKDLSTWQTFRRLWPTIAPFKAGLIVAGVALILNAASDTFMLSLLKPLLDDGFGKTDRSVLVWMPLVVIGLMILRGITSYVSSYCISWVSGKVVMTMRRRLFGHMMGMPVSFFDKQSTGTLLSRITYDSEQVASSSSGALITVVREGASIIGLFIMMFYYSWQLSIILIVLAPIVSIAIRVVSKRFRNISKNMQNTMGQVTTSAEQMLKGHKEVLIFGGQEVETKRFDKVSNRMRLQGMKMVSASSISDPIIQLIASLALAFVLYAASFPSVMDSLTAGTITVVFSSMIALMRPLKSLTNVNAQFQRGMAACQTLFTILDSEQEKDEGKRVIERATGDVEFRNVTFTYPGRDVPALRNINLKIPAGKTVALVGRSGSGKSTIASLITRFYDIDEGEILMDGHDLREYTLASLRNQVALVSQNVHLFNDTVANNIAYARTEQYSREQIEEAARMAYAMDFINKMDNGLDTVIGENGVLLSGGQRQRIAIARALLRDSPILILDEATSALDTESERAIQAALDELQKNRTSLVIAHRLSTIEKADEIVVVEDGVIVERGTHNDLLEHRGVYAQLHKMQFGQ

pKd: 5.29
SMILES: Nc1ncnc2c1ncn2[C@@H]1O[C@H](COP(=O)(O)OP(=O)(O)NP(=O)(O)O)[C@@H](O)[C@H]1O [AMP-PNP]
